Source: US11096923B2, “Pharmaceutical composition containing polymyxin B/trimethoprim based therapeutics” (University of Rochester, priority 2016, dated 2021)

How the values were obtained:
P. aeruginosa [1] = test: Fractional inhibitory concentration, checkerboard MIC; type: cell-based, Pseudomonas aeruginosa
S. aureus = test: as above; type: cell-based, Staphylococcus aureus; conditions: S. aureus UAMS-1
S. aureus UAMS-1 = test: Selleck library screen in presence of sub-inhibitory polymyxin B/trimethoprim; type: cell-based, Staphylococcus aureus; parameters: key: Growth (+); no growth (−); conditions: for S. aureus growth, 5 μM: drug 5 μM in presence of 1.2 μg ml^−1 polymyxin B/trimethoprim; for S. aureus growth, 50 μM: drug 50 μM in presence of 1.2 μg ml^−1 polymyxin B/trimethoprim
Method: (§1) To identify agents that potentiate the antimicrobial activity of polymyxin B/trimethoprim we first determined the highest concentration of the polymyxin B/trimethoprim combination that allowed growth of P. aeruginosa strain PAO1 and S. aureus strain UAMS-1.
(§2) For Selleck library screening, individual wells of 96-well microtiter plates containing 88 μl of fresh media were inoculated with approximately 10^5 CFUs of P. aeruginosa strain PAO1 or S. aureus UAMS-1. Next, 2 μl of polymyxin B/trimethoprim was added to a final concentration of 0.2 μg ml^−1 or 1.25 μg ml^−1 for PA01 and UAMS-1, respectively. Library members were then added at either 5 μM or 50 μM final concentration. Plates were incubated at 37° C. for 16 hours and hits were identified as wells with no visible growth.
To do so, 10^5 CFUs of S. aureus strain UAMS-1 were inoculated in individual wells of a microtiter plate supplemented with 1.2 μg ml^−1 of polymyxin B/trimethoprim, (0.25×MIC). Library members were added at low (5 μM) or high (50 μM) concentrations and then scored for agents that inhibited growth following overnight incubation. Such agents were expected to represent compounds that display antimicrobial activity on their own and/or that potentiate the antimicrobial activity of polymyxin B/trimethoprim.

P. aeruginosa PAO1 = test: as above; type: cell-based, Pseudomonas aeruginosa; parameters: key: Growth (+); no growth (−); conditions: for P. aeruginosa growth, 5 μM: drug 5 μM in presence of 0.2 μg ml^−1 polymyxin B/trimethoprim; for P. aeruginosa growth, 50 μM: drug 50 μM in presence of 0.2 μg ml^−1 polymyxin B/trimethoprim
Method: as §1
as §2, with “growth. […]” for “growth.”

P. aeruginosa biofilm = test system: P. aeruginosa biofilm; parameters: key: Killing (+) of established biofilms; conditions: established biofilms; adenylate kinase reporter; Blanchard et al., 2016; cited from earlier work
P. aeruginosa [2] = test: MIC of clinical P. aeruginosa ocular isolates (antibiotic susceptibility profiles); type: cell-based, Pseudomonas aeruginosa; conditions: Pseudomonas aeruginosa, read-out: Minimum Inhibitory Concentration
From the text: A series of genotyping and biological assays were used as a preliminary means to evaluate the clonality of clinical P. aeruginosa isolates collected, as follows. Genomic DNA was purified from each isolate using Qiagen DNeasy kits (Hilden, Germany) and used as a template for polymerase chain reactions to detect the presence of the virulence factors exoS, exoY, exoU, exoT, and perV using previously published primers (Table 1). See Allewelt M, Coleman F T, Grout M, Priebe G P, Pier G B. Acquisition of expression of the Pseudomonas aeruginosa ExoU cytotoxin leads to increased bacterial virulence in a murine model of acute pneumonia and systemic spread. Infection and immunity 2000; 68:3998-4004, Lomholt J A, Poulsen K, Kilian M. Epidemic population structure of Pseudomonas aeruginosa: evidence for a clone that is pathogenic to the eye and that has a distinct combination of virulence factors. Infection and immunity 2001; 69, and Ledbetter E C, Mun J J, Kowbel D, Fleiszig S M. Pathogenic phenotype and genotype of Pseudomonas aeruginosa isolates from spontaneous canine ocular infections. Investigative ophthalmology & visual science 2009; 50. […] See Institute C. Performance Standards for Antimicrobial Susceptibility Testing: Twenty-fifth Informational Supplement. Each isolate's ability to form biofilms was quantified. To do so, wells of a polystyrene plate containing 72-hour established biofilms were washed with 0.8% NaCl to remove non adherent cells and stained with crystal violet. To quantify biofilm staining, plates were washed 3 times with H2O, stain was suspended in 30% glacial acetic acid and the optical density (OD600nm) of each well was determined using an automated plate reader, as previously described. See Jacobs A C, Blanchard C E, Catherman S C, Dunman P M, Murata Y. An ribonuclease T2 family protein modulates Acinetobacter baumannii abiotic surface colonization. PloS one 2014; 9.

[3] = test system: S. aureus UAMS-1 biofilms; test: Biofilm susceptibility; type: cell-based, Staphylococcus aureus; conditions: established S. aureus biofilm, 24 hrs treatment, 32×MIC
From the text: Bacterial strains used in these studies include the conventional laboratory strains Pseudomonas aeruginosa PA01 and Staphylococcus aureus UAMS-1, both of which are antibiotic susceptible and capable of forming robust biofilms. See […], Thomas J R, Nelson […]. Role of the accessory gene regulator (agr) in pathogenesis of staphylococcal osteomyelitis. Infection and immunity 1995; 63:3373-3380. Seven clinical keratitis isolates of Pseudomonas aeruginosa, were collected from the Flaum Eye Institute, Rochester N.Y. and 25 clinical isolates of Staphylococcus aureus from geographically distinct regions of the country where purchased from International Health Management Associates (IHMA; Schaumburg, Ill.). For experiments requiring planktonic cultures, the indicated organism was grown overnight in Luria-Bertani broth (LB; […] Biofilms were established by inoculating individual wells of flat-bottom polystyrene plates (Falcon, Corning Life Sciences; Durham, N.C.) with overnight cultures of the indicated organism into 200 ul of fresh LB to a final concentration of 1×10^7 CFU ml^-1. Plates were placed in a 37° C.-humidified incubator for 72 hours to allow static biofilm formation. Non-adherent cells were aspirated and biofilms were washed twice with phosphate-buffered saline prior to each experiment. […] After 24 hrs the remaining media and non-adherent cells were removed, biofilms were suspended in 0.8% NaCl and plated to quantify surviving bacteria. […] Biofilms were treated in increasing increments ranging from 0 to 64×MIC.

[4] = test system: planktonic P. aeruginosa cells; test: Antimicrobial kill curves; type: cell-based, Pseudomonas aeruginosa; conditions: 2× MIC, 4 hours post-treatment
Method: Overnight cultures of the indicated organism were used to inoculate (1:100 dilution) 100 ml of fresh media and grown to mid-exponential phase. […] Aliquots were taken at 1, 2, 3, 4, and 24 hours, serial diluted and plated for colony forming units.

[5] = test system: P. aeruginosa strain PA01; type: cell-based, Pseudomonas aeruginosa
Method: (§3) Spontaneous resistance to the indicated test agent(s) was measured for P. aeruginosa strain PA01 and S. aureus strain UAMS-1 using two liquid culture approaches. […] Growth was measured using the BacterioScan s216Dx laser microbial growth monitor, with optical measurements taken every 3 minutes over 40 hours. Following 40 hours, samples were plated for to measure viable colony forming units and re-tested for drug susceptibility.
(§4) To determine if these colonies represented untreated cells vs. resistant cells, 8 individual colonies from each treatment condition were randomly selected and tested for MICs.
(§5) Using an automated laser microbial growth monitor, the optical profiles of these cultures were measured continuously over time. […] Again 8 colonies were selected at random from each treatment group.

S. aureus strain UAMS-1 = type: cell-based, Staphylococcus aureus; conditions: 1×MIC, laser microbial growth monitor over 40 hours
Method: as §3, §4, §5

MRSA keratitis isolates = MRSA keratitis isolates collected between 1993 and 2012; cited from earlier work

SMILES | S. aureus growth, 5 μM (S. aureus UAMS-1) | S. aureus growth, 50 μM (S. aureus UAMS-1) | P. aeruginosa growth, 5 μM (P. aeruginosa PAO1) | P. aeruginosa growth, 50 μM (P. aeruginosa PAO1) | P. aeruginosa biofilm AK Signal (P. aeruginosa biofilm) | isolates displaying resistance (MRSA keratitis isolates) | also measured
N[C@@H]1CCCCN(c2c(F)cc3c(=O)c(C(=O)O)cn(C4CC4)c3c2Cl)C1 [Besifloxacin, besifloxacin] | − | − | − | − | + |  | MIC in combination (P. aeruginosa [1]; P. aeruginosa PAO1, PT combined with besifloxacin): 0.78 µg/mL; MIC (P. aeruginosa [1]; Pseudomonas aeruginosa, PAO1, P. aeruginosa PAO1): 1.56 µg/mL; MIC in combination (S. aureus; PT combined with besifloxacin): 0.06 µg/mL; MIC (S. aureus; Staphylococcus aureus): 0.12 µg/mL
COc1c(N2C[C@@H]3CCCN[C@@H]3C2)c(F)cc2c(=O)c(C(=O)O)cn(C3CC3)c12 [Moxifloxacin, moxifloxacin] |  |  |  |  |  |  | MIC (P. aeruginosa [2]; P. aeruginosa ocular isolate RW01 (cornea)): 0.25 µg/mL; MIC (P. aeruginosa [2]; P. aeruginosa ocular isolate RW02 (cornea)): 0.25 µg/mL; MIC (P. aeruginosa [2]; P. aeruginosa ocular isolate RW03 (cornea)): 0.25 µg/mL; MIC (P. aeruginosa [2]; P. aeruginosa ocular isolate RW04 (conjunctiva)): 0.25 µg/mL; MIC (P. aeruginosa [2]; P. aeruginosa ocular isolate RW05 (cornea)): 0.125 µg/mL; MIC (P. aeruginosa [2]; P. aeruginosa ocular isolate RW06 (cornea)): 0.5 µg/mL; MIC (P. aeruginosa [2]; P. aeruginosa ocular isolate RW07 (cornea)): 0.125 µg/mL; reduction in biofilm-associated CFU [3]: 4 log; reduction in CFU at hour 4 [4]: 5 log; resistance of recovered cells on MIC retest [5]: 2 ×MIC; time until growth of treated culture ([5]; P. aeruginosa, 1×MIC, laser microbial growth monitor over 40 hours): approximately 22 hours; start of outgrowth of treated culture (S. aureus strain UAMS-1): 26 h
CO[C@H]1/C=C/O[C@@]2(C)Oc3c(C)c(O)c4c(O)c(c(/C=N/N5CCN(C6CCCC6)CC5)c(O)c4c3C2=O)NC(=O)/C(C)=C\C=C\[C@H](C)[C@H](O)[C@@H](C)[C@@H](O)[C@@H](C)[C@H](OC(C)=O)[C@@H]1C [Rifapentine, rifapentine] | − | − | − | − | + |  | 
CO[C@H]1/C=C/O[C@@]2(C)Oc3c(C)c(O)c4c(O)c(c5c(nc6cc(C)ccn65)c4c3C2=O)NC(=O)/C(C)=C\C=C\[C@H](C)[C@H](O)[C@@H](C)[C@@H](O)[C@@H](C)[C@H](OC(C)=O)[C@@H]1C [Rifaximin, rifaximin] | − | − | − | − | + |  | 
O=C(O)c1cn(-c2ccc(F)cc2)c2cc(N3CCNCC3)c(F)cc2c1=O [Sarafloxacin, sarafloxacin] | − | − | − | − | + |  | 
N[C@@H]1CN(c2c(F)cc3c(=O)c(C(=O)O)cn([C@@H]4C[C@@H]4F)c3c2Cl)CC12CC2 [Sitafloxacin, sitafloxacin] | − | − | − | − | + |  | 
C[C@@H]1CN(c2c(F)c(N)c3c(=O)c(C(=O)O)cn(C4CC4)c3c2F)C[C@H](C)N1 [Sparfloxacin, sparfloxacin] | − | − | − | − | + |  | 
COc1c(N2CCNC(C)C2)c(F)cc2c(=O)c(C(=O)O)cn(C3CC3)c12 (stereo not shown) [gatifloxacin] |  |  |  |  |  | ~45.9% | 
Cc1cc(NS(=O)(=O)c2ccc(N)cc2)no1 [sulfamethoxazole] |  |  |  |  |  | 5.7% | 
COc1cc(Cc2cnc(N)nc2N)cc(OC)c1OC [trimethoprim] |  |  |  |  |  | 11.5% | 
